This is an account of results in US20040102320A1, “NATURAL HERBICIDE FOR WEED REMOVAL” (priority 2002, published 2004).

In the assay the test system is grass, including crabgrass and other weeds. Particulars: 100% of sodium bicarbonate.

With `O=C([O-])O.[Na+]` [sodium bicarbonate], the killing of grass result is “would kill grass, including crabgrass and other weeds”.
